# Data taken from US11780841B2, “3,6-methano-1H-pyrrolo[3,2-b]pyridine and 3,6-methano-1H-pyrrolo[3,2-c]pyridine compounds and medicaments using same” (priority 2018, dated 2023).
# System: recombinant rabies virus 1088 strain expressing Gaussia Luciferase (GLuc) (1088/GLuc)
# Format: cell-based
# Details: read-out: Anti-rabies activity
row,Structure (SMILES),IC50
1,N=C(N)NCCCNC(=O)[C@]12NC[C@H]3C[C@H]1CN(Cc1ccccc1)[C@H]2[C@@H]3Cc1cccc2ccccc12 [IB-280],10 to 30 µM
2,N=C(N)NCCCN1C[C@@H]2C[C@@H]3CN[C@]2(C(=O)NCc2ccccc2)[C@@H]1[C@@H]3Cc1cccc2ccccc12 [IB-300],10 to 30 µM
3,N=C(N)NCCCN1C[C@@H]2C[C@@H]3CN[C@]2(C(=O)NCCc2ccccc2)[C@@H]1[C@@H]3Cc1cccc2ccccc12 [IB-327],10 to 30 µM
4,CC(C)CC[C@@H]1[C@H]2CN[C@@]3(C(=O)NCCC(N)=O)[C@@H](C2)CN(CCc2ccccc2)[C@@H]13 [IB-342],10 to 30 µM
5,N=C(N)NCCCNC(=O)[C@]12NC[C@H]3C[C@H]1CN(CCc1ccccc1)[C@H]2[C@@H]3Cc1ccccc1 [IB-344],10 to 30 µM
6,CC(C)CC[C@@H]1[C@H]2CN[C@@]3(C(=O)NCCCNC(=N)N)[C@@H](C2)CN(CCc2ccccc2)[C@@H]13 [IB-346],10 to 30 µM
7,N=C(N)NCCCNC(=O)[C@]12NC[C@H]3C[C@H]1CN(CCc1ccccc1)[C@H]2[C@@H]3Cc1cccc2ccccc12 [IB-347],10 to 30 µM
8,CC(C)CC[C@@H]1[C@H]2CN[C@@]3(C(=O)NCCC(N)=O)[C@@H](C2)CN(Cc2cccc4ccccc24)[C@@H]13 [IB-349],< 5 µM
9,CC(C)C[C@@H]1[C@H]2CN[C@@]3(C(=O)NCCCNC(=N)N)[C@@H](C2)CN(Cc2cccc4ccccc24)[C@@H]13 [IB-350],10 to 30 µM
10,N=C(N)NCCCNC(=O)[C@]12NC[C@H]3C[C@H]1CN(Cc1cccc4ccccc14)[C@H]2[C@@H]3Cc1ccccc1 [IB-351],10 to 30 µM
11,CC(C)CC[C@@H]1[C@H]2CN[C@@]3(C(=O)NCCCNC(=N)N)[C@@H](C2)CN(Cc2cccc4ccccc24)[C@@H]13 [IB-353],< 5 µM
12,N=C(N)NCCCNC(=O)[C@]12NC[C@H]3C[C@H]1CN(Cc1cccc4ccccc14)[C@H]2[C@@H]3CCc1ccccc1 [IB-354],< 5 µM
13,CC(C)CC[C@@H]1[C@H]2CN[C@@]3(C(=O)NCCC(N)=O)[C@@H](C2)CN(CC2CCCCC2)[C@@H]13 [IB-357],10 to 30 µM
14,CC(C)CC[C@@H]1[C@H]2CN[C@@]3(C(=O)NCCCNC(=N)N)[C@@H](C2)CN(CC2CCCCC2)[C@@H]13 [IB-361],10 to 30 µM
15,N=C(N)NCCCNC(=O)[C@]12NC[C@H]3C[C@H]1CN(CC1CCCCC1)[C@H]2[C@@H]3CCc1ccccc1 [IB-362],< 5 µM
16,CC(C)CC[C@@H]1[C@H]2CN[C@@]3(C(=O)NCCC(N)=O)[C@@H](C2)CN(Cc2ccc(F)cc2)[C@@H]13 [IB-365],10 to 30 µM
17,CC(C)CC[C@@H]1[C@H]2CN[C@@]3(C(=O)NCCCNC(=N)N)[C@@H](C2)CN(Cc2ccc(F)cc2)[C@@H]13 [IB-369],10 to 30 µM
18,CC(C)CC[C@@H]1[C@H]2CN[C@@]3(C(=O)NCC(C)C)[C@@H](C2)CN(CCO)[C@@H]13 [IB-372],10 to 30 µM
19,CC(C)CC[C@@H]1[C@H]2CN[C@@]3(C(=O)NCC(C)C)[C@@H](C2)CN(CC(C)C)[C@@H]13 [IB-378],< 5 µM
20,CC(C)CCN1C[C@@H]2C[C@@H]3CN[C@]2(C(=O)NCCC(=O)O)[C@@H]1[C@@H]3Cc1cccc2ccccc12 [IB-381],10 to 30 µM
21,O=C(O)CCNC(=O)[C@]12NC[C@H]3C[C@H]1CN(Cc1ccc(F)cc1)[C@H]2[C@@H]3Cc1cccc2ccccc12 [IB-384],10 to 30 µM
22,CC(C)CCN1C[C@@H]2C[C@@H]3CN[C@]2(C(=O)NCc2ccc(F)cc2)[C@@H]1[C@@H]3CCC(=O)O [IB-386],10 to 30 µM
23,O=C(O)CC[C@@H]1[C@H]2CN[C@@]3(C(=O)NCc4cccc5ccccc45)[C@@H](C2)CN(CC2CCCCC2)[C@@H]13 [IB-389],10 to 30 µM
24,O=C(O)CC[C@@H]1[C@H]2CN[C@@]3(C(=O)NCc4cccc5ccccc45)[C@@H](C2)CN(Cc2ccc(F)cc2)[C@@H]13 [IB-390],10 to 30 µM

row,Structure (SMILES),IC50
1,CC(C)C[C@@H]1[C@H]2CN[C@@]3(C(=O)NCc4cccc5ccccc45)[C@@H](C2)CN(CCC(=O)O)[C@@H]13 [IB-392],10 to 30 µM
2,O=C(O)CCN1C[C@@H]2C[C@@H]3CN[C@]2(C(=O)NCc2ccc(F)cc2)[C@@H]1[C@@H]3Cc1ccccc1 [IB-394],10 to 30 µM
3,CC(C)CC[C@@H]1[C@H]2CN[C@@]3(C(=O)NCc4cccc5ccccc45)[C@@H](C2)CN(CCC(=O)O)[C@@H]13 [IB-398],10 to 30 µM
4,CC(C)CC[C@@H]1[C@H]2CN[C@@]3(C(=O)NCc4ccc(F)cc4)[C@@H](C2)CN(CCC(=O)O)[C@@H]13 [IB-399],10 to 30 µM
5,CC(C)CC[C@@H]1[C@H]2CN[C@@]3(C(=O)NCc4ccc(O)cc4)[C@@H](C2)CN(CCC(=O)O)[C@@H]13 [IB-402],10 to 30 µM
6,O=C(O)CCNC(=O)[C@]12NC[C@H]3C[C@H]1CN(Cc1ccc(O)cc1)[C@H]2[C@@H]3Cc1cccc2ccccc12 [IB-410],10 to 30 µM
7,O=C(NCc1ccc(O)cc1)[C@]12NC[C@H]3C[C@H]1CN(Cc1cccc4ccccc14)[C@H]2[C@@H]3Cc1cccc2ccccc12 [IB-417],10 to 30 µM
8,O=C(O)CC[C@@H]1[C@H]2CN[C@@]3(C(=O)NCc4cccc5ccccc45)[C@@H](C2)CN(CCO)[C@@H]13 [IB-425],10 to 30 µM
9,CC(C)CCN1C[C@@H]2C[C@@H]3CN[C@]2(C(=O)NCc2cccc4ccccc24)[C@@H]1[C@@H]3CO [IB-426],< 5 µM
10,CC(C)CNC(=O)[C@]12NC[C@H]3C[C@H]1CN(CCC(=O)O)[C@H]2[C@@H]3CCc1ccccc1 [IB-430],< 5 µM
11,CC(C)CNC(=O)[C@]12NC[C@H]3C[C@H]1CN(CCC(=O)O)[C@H]2[C@@H]3CO [IB-431],10 to 30 µM
12,CC(C)C[C@@H]1[C@H]2CN[C@@]3(C(=O)NCc4ccc(O)cc4)[C@@H](C2)CN(CCc2ccccc2)[C@@H]13 [IB-449],10 to 30 µM
13,CC(C)C[C@@H]1[C@H]2CN[C@@]3(C(=O)NCc4ccc(O)cc4)[C@@H](C2)CN(Cc2ccc(F)cc2)[C@@H]13 [IB-458],10 to 30 µM
14,O=C(NCCO)[C@]12NC[C@H]3C[C@H]1CN(Cc1cccc4ccccc14)[C@H]2[C@@H]3Cc1ccc(O)cc1 [IB-459],10 to 30 µM
15,CC(C)CC[C@@H]1[C@H]2CN[C@@]3(C(=O)NCCO)[C@@H](C2)CN(CCc2ccccc2)[C@@H]13 [IB-461],10 to 30 µM
16,CC(C)C[C@@H]1[C@H]2CN[C@@]3(C(=O)NCc4ccc(O)cc4)[C@@H](C2)CN(Cc2ccccc2)[C@@H]13 [IB-464],< 5 µM
17,CC(C)CC[C@@H]1[C@H]2CN[C@@]3(C(=O)NCc4ccc(O)cc4)[C@@H](C2)CN(CC(C)C)[C@@H]13 [IB-465],10 to 30 µM
18,O=C(NCc1ccc(O)cc1)[C@]12NC[C@H]3C[C@H]1CN(CCO)[C@H]2[C@@H]3Cc1cccc2ccccc12 [IB-470],10 to 30 µM
19,CCCCCCNC(=O)[C@]12NC[C@H]3C[C@H]1CN(CCO)[C@H]2[C@@H]3Cc1ccccc1 [IB-476],< 5 µM
20,CCCCCCNC(=O)[C@]12NC[C@H]3C[C@H]1CN(CCO)[C@H]2[C@@H]3CC(C)C [IB-477],< 5 µM
21,CCCCCCNC(=O)[C@]12NC[C@H]3C[C@H]1CN(CCO)[C@H]2[C@@H]3Cc1ccc(O)cc1 [IB-478],10 to 30 µM
22,O=C(NCc1ccc(F)cc1)[C@]12NC[C@H]3C[C@H]1CN(CCO)[C@H]2[C@@H]3Cc1ccccc1 [IB-479],10 to 30 µM
23,CC(C)CCN1C[C@@H]2C[C@@H]3CN[C@]2(C(=O)NCc2ccc(F)cc2)[C@@H]1[C@@H]3Cc1ccc(O)cc1 [IB-481],< 5 µM
24,CCCCCCNC(=O)[C@]12NC[C@H]3C[C@H]1CN(CCO)[C@H]2[C@@H]3CCC(C)C [IB-490],< 5 µM

row,Structure (SMILES),IC50
1,O=C(NCc1ccc(F)cc1)[C@]12NC[C@H]3C[C@H]1CN(CCO)[C@H]2[C@@H]3CCc1ccccc1 [IB-492],< 5 µM
2,CC(C)C[C@@H]1[C@H]2CN[C@@]3(C(=O)NCCc4ccccc4)[C@@H](C2)CN(CC(C)C)[C@@H]13 [IB-495],< 5 µM
3,CC(C)CN1C[C@@H]2C[C@@H]3CN[C@]2(C(=O)NCc2ccc(F)cc2)[C@@H]1[C@@H]3Cc1ccc(O)cc1 [IB-498],< 5 µM
4,CC(C)C[C@@H]1[C@H]2CN[C@@]3(C(=O)NCc4ccc(F)cc4)[C@@H](C2)CN(Cc2ccc(O)cc2)[C@@H]13 [IB-499],< 5 µM
5,CC(C)CC[C@@H]1[C@H]2CN[C@@]3(C(=O)NC(C)C)[C@@H](C2)CN(Cc2ccc(O)cc2)[C@@H]13 [IB-501],< 5 µM
6,CC(C)NC(=O)[C@]12NC[C@H]3C[C@H]1CN(Cc1ccc(O)cc1)[C@H]2[C@@H]3Cc1cccc2ccccc12 [IB-502],< 5 µM
7,CC(C)CCN1C[C@@H]2C[C@@H]3CN[C@]2(C(=O)NCc2ccccc2)[C@@H]1[C@@H]3CCC(=O)O [IB-505],10 to 30 µM
8,CC(C)CNC(=O)C12NCC3CC1CN(CCc1ccccc1)C2C3CCC(=O)O (centres unmarked) [IB-508],10 to 30 µM
9,CC(C)CNC(=O)C12NCC3CC1CN(CC1CCCCC1)C2C3CCC(=O)O (centres unmarked) [IB-510],10 to 30 µM
10,O=C(O)CCN1CC2CC3CNC2(C(=O)NCc2ccc(O)cc2)C1C3CCc1ccccc1 (centres unmarked) [IB-515],10 to 30 µM
11,O=C(O)CCN1CC2CC3CNC2(C(=O)NCc2ccc(O)cc2)C1C3Cc1cccc2ccccc12 (centres unmarked) [IB-516],10 to 30 µM
12,CC(C)CC1C2CNC3(C(=O)NCCC(N)=O)C(C2)CN(Cc2cccc4ccccc24)C13 (centres unmarked) [IB-520],< 5 µM
13,NC(=O)CCNC(=O)C12NCC3CC1CN(Cc1cccc4ccccc14)C2C3Cc1ccc(O)cc1 (centres unmarked) [IB-521],10 to 30 µM
14,NC(=O)CCNC(=O)C12NCC3CC1CN(CC1CCCCC1)C2C3Cc1cccc2ccccc12 (centres unmarked) [IB-522],10 to 30 µM
15,NC(=O)CCNC(=O)C12NCC3CC1CN(Cc1ccc(F)cc1)C2C3Cc1cccc2ccccc12 (centres unmarked) [IB-525],10 to 30 µM
16,CC(C)CCC1C2CNC3(C(=O)NCCc4ccccc4)C(C2)CN(CCO)C13 (centres unmarked) [IB-531],10 to 30 µM
17,NC(=O)CCNC(=O)C12NCC3CC1CN(Cc1ccccc1)C2C3CCc1ccccc1 (centres unmarked) [IB-535],10 to 30 µM
18,CC(C)CN1CC2CC3CNC2(C(=O)NCCc2ccccc2)C1C3Cc1ccc(O)cc1 (centres unmarked) [IB-536],10 to 30 µM
19,CC(C)CN1CC2CC3CNC2(C(=O)NCCC(N)=O)C1C3CCc1ccccc1 (centres unmarked) [IB-539],10 to 30 µM
20,CC(C)CC1C2CNC3(C(=O)NCCc4ccccc4)C(C2)CN(Cc2ccc(O)cc2)C13 (centres unmarked) [IB-540],10 to 30 µM
21,CC(C)CC1C2CNC3(C(=O)NCc4cccc5ccccc45)C(C2)CN(Cc2ccc(O)cc2)C13 (centres unmarked) [IB-541],< 5 µM
22,CC(C)CCC1C2CNC3(C(=O)NCCc4ccccc4)C(C2)CN(Cc2ccc(O)cc2)C13 (centres unmarked) [IB-544],10 to 30 µM
23,O=C(NCc1ccc(F)cc1)C12NCC3CC1CN(CCO)C2C3Cc1ccc(O)cc1 (centres unmarked) [IB-549],10 to 30 µM
